From patent publication EP1963277B1, “FLUORINATED COMPOUNDS” (priority 2005, dated 2007)
Like-named read-outs stand apart in the source and are kept apart here.

Assays:
Assay type in all cases: in vivo
[1] = test system: Male, Sprague-Dawley rats; test: Maximal Electroshock Assay (rat); details: for ED50 / Ratio ED50 4h vs. 0.5h / shift in ED50 for 0.5 vs. 4h: rat; for ED50: oral pretreatment, range in parentheses; for duration of action: rat MES, judged by similar potency at 0.5h and 4h pretreatment timepoints; for Ratio ED50 4h vs. 0.5h / shift in ED50 for 0.5 vs. 4h: oral
Procedure: Male, Sprague-Dawley rats (approx. 100g body weight) were prescreened for tonic seizure susceptibility prior to drug testing. […] Protection was defined by the absence of a tonic extensor seizure in the animal within 20s of application of the electrical stimulus, which typically occurred in all vehicle pretreated animals. Animals received only one electroshock on the drug test day and so separate animals were used for the 0.5h and 4h timepoints. All drugs were administered in multiple doses.

[2] = test system: Male, CD-1 mice; test: Maximal Electroshock Assay (mouse); details: for ED50 / Ratio ED50 4h vs. 1h / shift in ED50 for 1 vs. 4h: mouse; for ED50: oral pretreatment, range in parentheses; for duration of action: mouse MES, judged by similar potency at 1h and 4h pretreatment timepoints; for Ratio ED50 4h vs. 1h / shift in ED50 for 1 vs. 4h: oral
Procedure: Male, CD-1 mice (20-30g body weight) were orally pretreated with test compound or vehicle control, and either at 1h or 4h post dose a maximal electroshock (45mA amplitude, 0.2s duration, 60Hz) was applied by corneal electrodes. Protection was defined by the absence of a tonic extensor seizure in the animal within 20s of application of the electrical stimulus, which typically occurred in all vehicle pretreated animals. Animals received only one electroshock and so separate animals were used for the 1h and 4h timepoints. All drugs were administered in multiple doses.

[3] = test system: FCA-treated rats; test: Freund's Complete Adjuvant (FCA) model, paw edema/volume (plethysmometer); details: p.o.; for paw volume (ml), Post Admin 30 min / paw volume (ml), Post Admin 60 min: 60 mg/kg; for paw volume (ml), Pre-Admin. 0 min: group later given 60 mg/kg, baseline before administration
Procedure: (§1) Administration of FCA to the hind paw of an animal induces the formation of a localized edema and has been widely used as a model of chronic inflammatory pain. 100 µl of FCA is injected subcutaneously into the dorsal aspect of the left hind paw of the rats. The edema appears within 2 h reaches a peak by 6h and lasts for about 7 days. The effects of compounds on mechanical allodynia and paw volume were studied 2 days after FCA administration.
The edema/volume of the paw is a measure of inflammation induced by FCA. This was measured by using a plethysmometer (Ugo Basile, Italy). In this, the paw of the rat is immersed in a reservoir of water and the volume of water displaced indicates the paw volume.
After the initial basal (control) readings were taken, the test compound (60 mg/kg)/vehicle was administered orally in a volume of 10 ml/kg.

[4] = test system: SNI rats; test: Spared Nerve Injury (SNI) model, mechanical allodynia (Dynamic Plantar Aesthesiometer); details: for withdrawal threshold, Post Admin 30 min / withdrawal threshold, Post Admin 60 min / withdrawal threshold, Post Admin 180 min: *** P<0.001 vs Pre-Admin.; for withdrawal threshold, Pre-Admin. 0 min: baseline before administration
Procedure: (§2) The compounds were tested for their efficacy in reducing mechanical allodynia and cold allodynia in the spared nerve injury (SNI) model of chronic neuropathic pain. In this model, the left sciatic nerve of the rat is exposed under anesthesia. Two of the branches of the sciatic nerve viz. the common peroneal and tibial nerve are ligated and sectioned. The third branch (sural nerve) is left intact. The animals were allowed a post-operative recovery period of 7 days before they were subjected to any test.
The presence of mechanical allodynia was assessed using the Dynamic Plantar Aesthesiometer (Ugo Basile, Italy) which is a modified version of the Von Frey Hair test. In this, a test filament is positioned below the animal's hind paw and the unit is activated which causes the filament to move up and touch the plantar surface of the hind paw. Increasing force is applied to the paw via the filament. […] The cut-off force is set at 50 g. The tests were done on both the non-injured (control) and the injured (SNI) paw.
Testing of compounds was done after 21 days post-operatively. After initial basal readings were taken, the test compound or the vehicle was administered (10 ml/kg) either intraperitoneally (30 mg/kg) or orally (60 mg/kg). The readings were taken again 30, 60 and 180 min after the compound/vehicle administration.

[5] = test system: SNI rats; test: Spared Nerve Injury (SNI) model, cold allodynia (acetone test); details: for duration (s) of nociceptive response, Post Admin 30 min: *** P<0.001 vs Pre-Admin.; for duration (s) of nociceptive response, Pre-Admin. 0 min: baseline before administration
Procedure: as §2
Cold allodynia was assessed by using the acetone test. In this model, 25 µl of acetone is sprayed on to the plantar surface of the hind paw. Evaporation of acetone causes cooling of the skin. The cold stimulus sets up nociceptive responses from the injured paw as evidenced by paw lifting, paw licking and grooming. The duration of the nociceptive responses is noted.
Testing of compounds was done after 21 days post-operatively. After initial basal readings were taken, the test compound or the vehicle was administered (10 ml/kg) either intraperitoneally (30 mg/kg) or orally (60 mg/kg). The readings were taken 30 min after the administration.

[6] = test system: rats; test: Persistent Inflammatory Pain (Formalin Model); details: Rattus norvegicus, formalin test, 30 min pretreatment; for inhibition at 30 mg/kg: ip, i.p.; for inhibition at 60 mg/kg: po, p.o.
Procedure: The formalin test is a chemically-induced tonic pain model in which injection of formalin into a hind paw elicits a biphasic nociceptive behavior. The second phase of formalin response is predominantly due to a central sensitization phenomenon. Most clinically used drugs against neuropathic pain arc active on this second phase of formalin response. Formalin test is accepted as a valid model of persistent clinical pain.
The test was done by pretreating the rats with the test compound and 30 min later (pretreatment time), 50 µl of 2.5% formalin was injected into the right hind paw of the animal. The number of paw licking and flinching episodes were scored for 60 min post-formalin injection.
The compounds were administered either intraperitoneally (30 mg/kg) or orally (60 mg/kg).

[7] = test system: FCA-treated rats; test: Freund's Complete Adjuvant (FCA) model, mechanical allodynia (modified Randall-Selitto method); details: p.o.; for paw withdrawal threshold (g), Post Admin 30 min / paw withdrawal threshold (g), Post Admin 60 min / paw withdrawal threshold (g), Post Admin 180 min: 60 mg/kg, ** P<0.01, *** P<0.001 vs Pre-Admin.; for paw withdrawal threshold (g), Pre-Admin. 0 min: group later given 60 mg/kg, baseline before administration
Procedure: as §1
The effect of the compounds in alleviating mechanical allodynia was assessed in the FCA-treated rats using the modified Randall-Selitto method (Analgesy-Meter, Ugo Basile, Italy). The animal's paw is placed on a small plinth under a cone-shaped pusher. Increasing force is applied to the paw by depressing a pedal until vocalization or withdrawal of the paw occurs. The minimum force required to elicit this vocalization/withdrawal is the paw pressure threshold. The cut-off was set at 150 g.
After the initial basal (control) readings were taken, the test compound (60 mg/kg)/vehicle was administered orally in a volume of 10 ml/kg. The paw pressure thresholds were measured 30, 60 and 180 min post administration. […] Some of the compounds were effective even at 60 and 180 min post administration.

[8] = read-out: MES oral ED50 0.5h, electroshock 0.5h post dose
[9] = read-out: MES oral ED50 4h, electroshock 4h post dose
[10] = group later given 30 mg/kg, i.p.
[11] = group later given 60 mg/kg, p.o.
[12] = electroshock 1h post dose, blockade of tonic extensor seizure, read-out: MES oral ED50 1h
[13] = *** P<0.001, read-out: %Inhibition Phase I
[14] = *** P<0.001, read-out: %Inhibition Phase II
[15] = ** P<0.01, *** P<0.001, read-out: %Inhibition Phase II

| Compound | ED50 [1, 8] [mg/kg] | ED50 [1, 9] [mg/kg] | ED50 [2, 9] [mg/kg] | duration of action [1] | Ratio ED50 4h vs. 0.5h [1] | shift in ED50 for 0.5 vs. 4h [1] [fold] | paw volume (ml), Post Admin 30 min [3] [mL] | paw volume (ml), Post Admin 60 min [3] | paw volume (ml), Pre-Admin. 0 min [3] [mL] | withdrawal threshold, Post Admin 30 min ([4]; 30 mg/kg, i.p.) | withdrawal threshold, Post Admin 180 min ([4]; 30 mg/kg, i.p.) | withdrawal threshold, Post Admin 30 min ([4]; 60 mg/kg, p.o.) | withdrawal threshold, Post Admin 60 min ([4]; 60 mg/kg, p.o.) | withdrawal threshold, Post Admin 180 min ([4]; 60 mg/kg, p.o.) | withdrawal threshold, Pre-Admin. 0 min [4, 10] [g] | withdrawal threshold, Pre-Admin. 0 min [4, 11] [g] | duration (s) of nociceptive response, Post Admin 30 min ([5]; 30 mg/kg, i.p.) | duration (s) of nociceptive response, Post Admin 30 min ([5]; 60 mg/kg, p.o.) | duration (s) of nociceptive response, Pre-Admin. 0 min [5, 10] [s] | duration (s) of nociceptive response, Pre-Admin. 0 min [5, 11] [s] | further results |
| --- | --- | --- | --- | --- | --- | --- | --- | --- | --- | --- | --- | --- | --- | --- | --- | --- | --- | --- | --- | --- | --- |
| COC[C@@H](NC(C)=O)C(=O)NCc1ccccc1 [Lacosamide, R-2-acetamido-N-benzyl-3-methoxy-propanamide, reference compound] | 1.8 | 8.3 | 32 | – | – | – | – | – | – | – | – | – | – | – | – | – | – | – | – | – | – |
| CC(=O)NC(COC(F)F)C(=O)NCc1ccc(F)cc1 (centres unmarked) [Compound 4, 2-(Acetylamino)-3-(difluoromethoxy)-N-(4-fluoro-benzyl)propanamide] | 3.3 | 3.4 | 9.8 | longer than Lacosamide | 1.0 | 1 to 1.4 | 2.08 ± 0.0 | 2.11 ± 0.0 mL | 2.01 ± 0.0 | 16.7 ± 1.4*** g | 13.2 ± 1.0*** g | 15.4 ± 1.1*** g | 16.2 ± 1.7*** g | 7.9 ± 0.6 g | 6.7 ± 0.7 | 7.5 ± 0.5 | 3.1 ± 2.1*** s | 21.9 ± 6.4*** s | 48.2 ± 10.1 | 56.2 ± 8.4 | withdrawal threshold, Post Admin 60 min ([4]; 30 mg/kg, i.p.): 15.0 ± 0.8*** g; duration of action [2]: longer than Lacosamide; Ratio ED50 4h vs. 1h [2]: 1.0; shift in ED50 for 1 vs. 4h [2]: 1 to 3.5 fold; ED50 [2, 12]: 9.8 mg/kg; inhibition at 30 mg/kg [6, 13]: 94.7 ± 5.3%; inhibition at 30 mg/kg [6, 14]: 81.6 ± 10%; inhibition at 60 mg/kg [6, 15]: 41.9 ± 9%; inhibition at 60 mg/kg ([6]; read-out: %Inhibition Phase I): 7.6 ± 6.7%; paw withdrawal threshold (g), Post Admin 30 min [7]: 58.3 ± 4.8** g; paw withdrawal threshold (g), Post Admin 60 min [7]: 49.4 ± 6.4** g; paw withdrawal threshold (g), Post Admin 180 min [7]: 51.1 ± 8.9** g; paw withdrawal threshold (g), Pre-Admin. 0 min [7]: 33.9 ± 4.2 g |
| CC(=O)N[C@H](COC(F)F)C(=O)NCc1ccc(Cl)cc1 [Compound 20] | 1.7 | 2 | 17.9 | longer than Lacosamide | 1.2 | 1 to 1.4 | 2.3 ± 0.1 | 2.3 ± 0.1 mL | 2.3 ± 0.1 | 24.9 ± 4.4*** g | 26.3 ± 2.5*** g | 19.3 ± 1.8*** g | 20.3 ± 1.6*** g | 14.7 ± 0.9*** g | 12.4 ± 1.3 | 7.5 ± 0.5 | 3.4 ± 2.1*** s | 16.6 ± 6.3*** s | 45.6 ± 6.9 | 33.3 ± 4.3 | withdrawal threshold, Post Admin 60 min ([4]; 30 mg/kg, i.p.): 23.3 ± 3.2*** g; duration of action [2]: longer than Lacosamide; Ratio ED50 4h vs. 1h [2]: 2.1; shift in ED50 for 1 vs. 4h [2]: 1 to 3.5 fold; ED50 [2, 12]: 8.7 mg/kg; inhibition at 30 mg/kg [6, 13]: 75.3 ± 9.3%; inhibition at 30 mg/kg [6, 14]: 82.3 ± 9.7%; inhibition at 60 mg/kg [6, 15]: 57.6 ± 7%; inhibition at 60 mg/kg ([6]; read-out: %Inhibition Phase I): 9.6 ± 8.1%; paw withdrawal threshold (g), Post Admin 30 min [7]: 67.1 ± 9.9*** g; paw withdrawal threshold (g), Post Admin 60 min [7]: 60.4 ± 5.8*** g; paw withdrawal threshold (g), Post Admin 180 min [7]: 64.2 ± 5.6*** g; paw withdrawal threshold (g), Pre-Admin. 0 min [7]: 23.3 ± 2.1 g |
| CC(=O)NC(COC(F)F)C(=O)NCc1ccccc1 (centres unmarked) [Compound 3, 2-(Acetylamino)-N-benzyl-3-(difluoromethoxy)propanamide] | 3 | 4.2 | 20 | longer than Lacosamide | 1.4 | 1 to 1.4 | 2.3 ± 0.1 | 2.3 ± .01 mL | 2.3 ± 0.0 | 22.5 ± 2.1*** g | 14.1 ± 1.6*** g | 19.4 ± 2.3*** g | 20.6 ± 3.1*** g | 10.8 ± 1.8 g | 7.5 ± 1.4 | 9.7 ± 2.5 | 4.3 ± 1.6*** s | 17.2 ± 6.2*** s | 45.8 ± 9.4 | 70.7 ± 18.9 | duration of action [2]: longer than Lacosamide; Ratio ED50 4h vs. 1h [2]: 3.5; shift in ED50 for 1 vs. 4h [2]: 1 to 3.5 fold; ED50 [2, 12]: 5.7 mg/kg; inhibition at 30 mg/kg [6, 13]: 87.9 ± 12.1%; inhibition at 30 mg/kg [6, 14]: 90.2 ± 6.5%; inhibition at 60 mg/kg [6, 15]: 46.1 ± 8.7%; inhibition at 60 mg/kg ([6]; read-out: %Inhibition Phase I): 21.4 ± 10.2%; paw withdrawal threshold (g), Post Admin 30 min [7]: 57.8 ± 4.9** g; paw withdrawal threshold (g), Post Admin 60 min [7]: 46.7 ± 3.8 g; paw withdrawal threshold (g), Post Admin 180 min [7]: 37.8 ± 5.4 g; paw withdrawal threshold (g), Pre-Admin. 0 min [7]: 32.8 ± 6.5 g |
